Laboratory results reported in ChEMBL document CHEMBL3608291, “Chemical constituents of Miliusa balansae leaves and inhibition of nitric oxide production in lipopolysaccharide-induced RAW 264.7 cells” (Bioorg Med Chem Lett, 2015).
Active and inactive are the calls of the source. The calls are words filed in the database; no cut-off is given here.

Key:
RAW264.7 [1] = experiment: Anti-inflammatory activity in LPS-stimulated mouse RAW264.7 cells assessed as inhibition of nitric oxide production at 20 uM by Griess reaction based ELISA method; assay type: functional
RAW264.7 [2] = experiment: Anti-inflammatory activity in LPS-stimulated mouse RAW264.7 cells assessed as inhibition of nitric oxide production at 10 uM by Griess reaction based ELISA method; assay type: functional, cell-based
RAW264.7 [3] = experiment: Cytotoxicity against mouse RAW264.7 cells assessed as reduction in cell viability at 10 to 40 uM by MTT assay; assay type: cell-based; conditions: raw264.7, 40 µM
RAW264.7 [4] = experiment: Anti-inflammatory activity in LPS-stimulated mouse RAW264.7 cells assessed as inhibition of nitric oxide production at 40 uM by Griess reaction based ELISA method; assay type: functional
RAW264.7 [5] = experiment: Anti-inflammatory activity in LPS-stimulated mouse RAW264.7 cells assessed as inhibition of nitric oxide production at 10 to 40 uM by Griess reaction based ELISA method; assay type: functional

Structure (SMILES) | inhibition (RAW264.7 [1]) | inhibition (RAW264.7 [2]) | Activity (RAW264.7 [3]) | inhibition (RAW264.7 [4]) | inhibition at 20 µM (RAW264.7 [1]) | inhibition (INH) (RAW264.7 [5]) | inhibition at 40 µM (RAW264.7 [4])
C[C@H](/C=C/[C@@]1(O)[C@H](C)CC(=O)CC1(C)C)O[C@@H]1O[C@H](CO)[C@@H](O)[C@H](O)[C@H]1O | inactive | inactive | Non-toxic | inactive | – | – | –
CC(=O)/C=C/[C@@]12O[C@@H](C[C@]1(C)O[C@@H]1O[C@H](CO)[C@@H](O)[C@H](O)[C@H]1O)[C@H](O)C2(C)C | – | – | Non-toxic | – | 98.5% | – | –
COc1cc([C@H](O)[C@@H](O)CO)ccc1O (relative stereo) | inactive | inactive | Non-toxic | inactive | – | 48.4% | –
Oc1cc(O)c2c(c1)O[C@H](c1ccc(O)c(O)c1)[C@H](O)C2 [(-)-EPICATECHIN] | Active | Active | Non-toxic | – | – | – | 91.8%
CC(=O)/C=C/[C@@]12O[C@@H](C[C@]1(C)O[C@@H]1O[C@H](CO[C@@H]3OC[C@](O)(CO)[C@H]3O)[C@@H](O)[C@H](O)[C@H]1O)[C@H](O)C2(C)C | – | – | Non-toxic | – | 90.9% | – | –
C[C@H](CC[C@H]1[C@H](C)C[C@H](O)CC1(C)C)O[C@@H]1O[C@H](CO)[C@@H](O)[C@H](O)[C@H]1O | Active | Active | Non-toxic | – | – | – | 82%
CC(=O)/C=C/[C@@]12O[C@@H](CC1(C)C)C[C@@]2(C)O[C@@H]1O[C@H](CO)[C@@H](O)[C@H](O)[C@H]1O | – | – | Non-toxic | – | 84.8% | – | –
COc1cc(-c2oc3cc(OC)c(O)c(O)c3c(=O)c2OC)ccc1O [CHRYSOSPLENOL C] | inactive | inactive | Non-toxic | inactive | – | – | –
COc1cc([C@H](O)[C@H](O)CO)ccc1O (relative stereo) | inactive | inactive | Non-toxic | inactive | – | 48.4% | –
CC(C)CC(=O)c1c(O)cc(O)cc1O[C@@H]1O[C@H](CO)[C@@H](O)[C@H](O)[C@H]1O | inactive | inactive | Non-toxic | inactive | – | – | –
CC/C=C\CCO[C@@H]1O[C@H](CO)[C@@H](O)[C@H](O)[C@H]1O | – | – | Non-toxic | – | 91.8% | – | –
COc1cc([C@H](O)[C@H](O)CO)cc(OC)c1O (relative stereo) | inactive | inactive | Non-toxic | inactive | – | – | –
COc1cc([C@H](O)[C@@H](O)CO)cc(OC)c1O (relative stereo) | inactive | inactive | Non-toxic | inactive | – | – | –
O=C1/C(=C/c2ccc(O)c(O)c2)Oc2cc(O)ccc21 [SULFURETIN] | – | – | – | – | 81.3% | – | –
COc1cc([C@H](O)[C@H](CO)O[C@@H]2O[C@H](CO)[C@@H](O)[C@H](O)[C@H]2O)ccc1O | – | – | Non-toxic | – | 91.5% | 98% | –
C[C@H](CC[C@H]1[C@H](C)CC(=O)CC1(C)C)O[C@@H]1O[C@H](CO)[C@@H](O)[C@H](O)[C@H]1O | inactive | inactive | Non-toxic | inactive | – | – | –
CC1=C2C[C@@H]3[C@@](C)(C[C@]2(O)OC1=O)[C@H](O)CC[C@]3(C)O | inactive | inactive | Non-toxic | inactive | – | – | –
C[C@@H]1O[C@@H](OC[C@H]2O[C@@H](Oc3c(-c4ccc(O)c(O)c4)oc4cc(O)cc(O)c4c3=O)[C@H](O)[C@@H](O)[C@@H]2O)[C@H](O)[C@H](O)[C@H]1O [RUTIN] | inactive | inactive | Non-toxic | inactive | – | – | –
CC1=C2C[C@@H]3[C@@](C)(C[C@]2(O)OC1=O)[C@H](O)CC[C@@]3(C)O [CHLORAEUDOLIDE] | inactive | inactive | Non-toxic | inactive | – | – | –
